Patent US9532993B2, “Aprepitant L-proline solvates—compositions and cocrystals” (priority 2011, dated 2017)

Key:
[1] = marketed nanoparticulate formulation; cited from earlier work
[2] = cited from earlier work
[3] = Class IV indicates low solubility and low permeability API; cited from earlier work
[4] = for weight loss during the initial desorption cycle: initial desorption scan 50-0.5% RH; for solid form of the product obtained after the GVS analysis (XRPD): XRPD after completion of the GVS isotherm
Description: Gravimetric Vapour Isotherm (GVS) Analysis: Sorption isotherms were obtained using a Hiden Isochema moisture sorption analyser (model IGAsorp), controlled by IGAsorp Systems Software V6.50.48. The sample was maintained at a constant temperature (25° C.) by the instrument controls. The humidity was controlled by mixing streams of dry and wet nitrogen, with a total flow of 250 ml·min^−1. The instrument was verified for relative humidity content by measuring three calibrated Rotronic salt solutions (10-50-80%). The weight change of the sample was monitored as a function of humidity by a microbalance (accuracy +/−0.005 mg). A defined amount of sample was placed in a tared mesh stainless steel basket under ambient conditions. The sample was loaded at 40% RH and 25° C. (typical room conditions). The sample was initially held at 50% RH for ˜80 minutes before the initial desorption cycle was commenced. A moisture sorption isotherm was acquired as outlined in Table 1 (2 scans giving 1 complete cycle). The standard isotherm was collected at a constant temperature (25° C.) and at 10% RH intervals over a 0.5-90% range (80 minutes for each humidity level). Data analysis was undertaken in Microsoft Excel.
The sample was recovered after completion of the isotherm and re-analysed by XRPD.

SMILES	mean absolute bioavailability [1]	solubility in acetonitrile ([2]; acetonitrile)	solubility in ethanol ([2]; ethanol)	solubility in isopropyl acetate ([2]; isopropyl acetate)	solubility in water ([2]; water)	BCS class [3]	weight loss over the total desorption-adsorption-desorption cycles ([4]; GVS, 25° C., 0.5-90% RH) [%]	weight loss during the initial desorption cycle ([4]; GVS, 25° C.) [%]	solid form of the product obtained after the GVS analysis (XRPD) [4]	hygroscopicity of the obtained product ([4]; GVS, 25° C., product obtained after initial desorption)	water adsorbed by the obtained product at high relative humidity ([4]; GVS, 25° C., product obtained after initial desorption (converted to H2O cocrystal), high relative humidity) [%]
C[C@@H](O[C@H]1OCCN(Cc2nc(=O)[nH][nH]2)[C@H]1c1ccc(F)cc1)c1cc(C(F)(F)F)cc(C(F)(F)F)c1 [Aprepitant]	60-65%	slightly soluble	sparingly soluble	sparingly soluble	practically insoluble	Class IV	–	–	–	–	–
CCCO.C[C@@H](O[C@H]1OCCN(Cc2n[nH]c(=O)[nH]2)[C@H]1c1ccc(F)cc1)c1cc(C(F)(F)F)cc(C(F)(F)F)c1.O=C(O)[C@@H]1CCCN1	–	–	–	–	–	–	6.3	4.4	entirely the 1:1:1 aprepitant L-proline H2O cocrystal	–	–
CCO.C[C@@H](O[C@H]1OCCN(Cc2n[nH]c(=O)[nH]2)[C@H]1c1ccc(F)cc1)c1cc(C(F)(F)F)cc(C(F)(F)F)c1.O=C(O)[C@@H]1CCCN1	–	–	–	–	–	–	–	4.3	entirely the 1:1:1 aprepitant L-proline H2O cocrystal	not hygroscopic	0.5
